Values quoted from earlier work as cited in patent US6773669B1, “Flow electroporation chamber and method” (Maxcyte, Inc., priority 1995, dated 2004).

Experiments:
[1] = experimental animals; DPG or precursors of DPG; transient
[2] = target: T1, hemoglobin (Homo sapiens, UniProt P68871); conditions: pH 7.4, 37 degrees C; J. Biol. Chem. 1975
[3] = target: T1, hemoglobin; conditions: higher than DPG; Benesch et al. 1977

T1 sequence (P68871 2-147 limits assumed): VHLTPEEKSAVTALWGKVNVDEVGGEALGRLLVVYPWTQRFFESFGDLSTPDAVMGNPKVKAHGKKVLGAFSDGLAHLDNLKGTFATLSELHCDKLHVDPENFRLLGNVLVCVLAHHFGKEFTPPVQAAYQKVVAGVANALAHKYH
T1 sequence (P69905 2-142 partner limits assumed): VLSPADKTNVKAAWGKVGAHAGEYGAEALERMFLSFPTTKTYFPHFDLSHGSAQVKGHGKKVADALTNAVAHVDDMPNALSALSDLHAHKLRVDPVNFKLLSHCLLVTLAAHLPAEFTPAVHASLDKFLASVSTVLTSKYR

SMILES | duration of elevation of oxygen deposition [1] | P50 of hemoglobin [2] | affinity to hemoglobin relative to DPG [3]
O=C(O)C(COP(=O)(O)O)OP(=O)(O)O (stereo not drawn) [DPG, 2,3-diphosphoglycerate] | 6 to 12 h |  | 
O=P(O)(O)O[C@H]1[C@H](OP(=O)(O)O)[C@@H](OP(=O)(O)O)[C@H](OP(=O)(O)O)[C@@H](OP(=O)(O)O)[C@H]1OP(=O)(O)O [IHP, inositol hexaphosphate] |  | ≤ 96.4 mm Hg | 1000 fold
